# US20260262643A1, “HERBICIDAL BENZOXAZINES” (FMC CORPORATION, priority 2022, published 2026)
# Tests used:
# [1] = system: barnyardgrass; assay: Test A preemergence; assay type: in vivo, Echinochloa crusgalli; details: visual injury after 10 days, 0 to 100 scale, 0 is no effect, 100 is complete control
# Method in brief: (§1)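 Greenhouse pot test, 10 days. Compound (non-phytotoxic solvent, surfactant) sprayed on soil at seeding or on seedlings at one- to two-leaf stage. Visual injury rated 0–100 against untreated plants.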
# [2] = system: foxtail, giant; assay: Test A preemergence; assay type: in vivo, Setaria faberi; details: 0 to 100 scale
# Method in brief: as §1
# [3] = system: oat, wild; assay: Test A preemergence; assay type: in vivo, Avena fatua; details: 0 to 100 scale
# Method in brief: as §1
# [4] = system: pigweed, palmer; assay: Test A preemergence; assay type: in vivo, Amaranthus palmeri; details: 0 to 100 scale
# Method in brief: as §1
# [5] = system: sedge, umbrella; assay: Test B flooded paddy test; assay type: in vivo, Cyperus difformis; details: 250 g ai/ha, Flood, 13 days, 0 to 100 scale (0 no effect, 100 complete control)
# Method in brief: (§2)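 Percent weed or crop control, judged by eye on a 0–100 scale 13 days post-treatment, reflects compound added to a 3 cm flood maintained over 2-leaf plants in the greenhouse. Missing entries are marked with a dash.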
# [6] = system: foxtail, giant; assay: Test A postemergence; assay type: in vivo, Setaria faberi; details: postemergence, 10 days
# Method in brief: as §1
# [7] = system: ragweed; assay: Test A preemergence; assay type: in vivo, Ambrosia artemisiifolia; details: 0 to 100 scale
# Method in brief: as §1
# [8] = system: soybean; assay: Test A preemergence; assay type: in vivo, Glycine max; details: 0 to 100 scale
# Method in brief: as §1
# [9] = system: blackgrass; assay: Test A preemergence; assay type: in vivo, Alopecurus myosuroides; details: 0 to 100 scale
# Method in brief: as §1
# [10] = system: barnyardgrass; assay: Test A postemergence; assay type: in vivo, Echinochloa crusgalli; details: postemergence, 10 days
# Method in brief: as §1
# [11] = system: ragweed; assay: Test A postemergence; assay type: in vivo, Ambrosia artemisiifolia; details: postemergence, 10 days
# Method in brief: as §1
# [12] = system: wheat; assay: Test A postemergence; assay type: in vivo, Triticum aestivum; details: postemergence, 10 days
# Method in brief: as §1
# [13] = system: oat, wild; assay: Test A postemergence; assay type: in vivo, Avena fatua; details: postemergence, 10 days
# Method in brief: as §1
# [14] = system: horseweed; assay: Test A postemergence; assay type: in vivo, Erigeron canadensis; details: postemergence, 10 days
# Method in brief: as §1
# [15] = system: corn; assay: Test A postemergence; assay type: in vivo, Zea mays; details: postemergence, 10 days
# Method in brief: as §1
# [16] = system: rice; assay: Test B flooded paddy test; assay type: in vivo, Oryza sativa; details: 250 g ai/ha, Flood, 13 days, 0 to 100 scale (0 no effect, 100 complete control)
# Method in brief: as §2
# [17] = system: barnyardgrass; assay: Test B flooded paddy test; assay type: in vivo, Echinochloa crus-galli; details: 250 g ai/ha, Flood, 13 days, 0 to 100 scale (0 no effect, 100 complete control)
# Method in brief: as §2
# [18] = system: kochia; assay: Test A preemergence; assay type: in vivo, Bassia scoparia; details: 0 to 100 scale
# Method in brief: as §1
# [19] = system: corn; assay: Test A preemergence; assay type: in vivo, Zea mays; details: 0 to 100 scale
# Method in brief: as §1
# [20] = system: blackgrass; assay: Test A postemergence; assay type: in vivo, Alopecurus myosuroides; details: postemergence, 10 days
# Method in brief: as §1
# [21] = system: ducksalad; assay: Test B flooded paddy test; assay type: in vivo, Heteranthera limosa; details: 250 g ai/ha, Flood, 13 days, 0 to 100 scale (0 no effect, 100 complete control)
# Method in brief: as §2
# [22] = system: soybean; assay: Test A postemergence; assay type: in vivo, Glycine max; details: postemergence, 10 days
# Method in brief: as §1
# [23] = system: kochia; assay: Test A postemergence; assay type: in vivo, Bassia scoparia; details: postemergence, 10 days
# Method in brief: as §1
# [24] = system: ryegrass, Italian; assay: Test A postemergence; assay type: in vivo, Lolium multiflorum; details: postemergence, 10 days
# Method in brief: as §1
# [25] = system: wheat; assay: Test A preemergence; assay type: in vivo, Triticum aestivum; details: 0 to 100 scale
# Method in brief: as §1
# [26] = system: galium; assay: Test A postemergence; assay type: in vivo, Galium aparine; details: postemergence, 10 days
# Method in brief: as §1
# [27] = system: ryegrass, Italian; assay: Test A preemergence; assay type: in vivo, Lolium multiflorum; details: 0 to 100 scale
# Method in brief: as §1
# [28] = system: pigweed, palmer; assay: Test A postemergence; assay type: in vivo, Amaranthus palmeri; details: postemergence, 10 days
# Method in brief: as §1
# [29] = 500 g ai/ha, visual injury after 10 days, 0 is no effect, 100 is complete control
# [30] = 125 g ai/ha, 0 to 100 scale, 0 no effect, 100 complete control
# [31] = 500 g ai/ha, visual injury, 0 to 100 scale (0 no effect, 100 complete control)
structure (smiles),measurement,setting,value
Cc1cccc2c1OC(C(F)(F)F)CN2C(=O)c1ccnc(-n2cncn2)c1 (stereo not shown) [Compound 144],"Plant response rating, Barnyardgrass",[1]; 125 g ai/ha,50
same,"Plant response rating, Barnyardgrass",[1]; 500 g ai/ha,90
same,"Plant response rating, Foxtail, Giant",[2]; 125 g ai/ha,100
same,"Plant response rating, Foxtail, Giant",[2]; [29],100
same,"Plant response rating, Oat, Wild",[3]; 125 g ai/ha,30
same,"Plant response rating, Oat, Wild",[3]; [29],60
same,"Plant response rating, Pigweed, Palmer",[4]; 125 g ai/ha,10
same,"Plant response rating, Pigweed, Palmer",[4]; [29],100
same,"Plant response rating, Sedge, Umbrella",[5],60
same,"Foxtail, Giant plant response rating",[6]; [30],80
same,"Plant response rating, Foxtail, Giant",[6]; [31],90
same,"Plant response rating, Ragweed",[7]; 125 g ai/ha,0
same,"Plant response rating, Ragweed",[7]; [29],30
same,"Plant response rating, Soybean",[8]; 125 g ai/ha,0
same,"Plant response rating, Soybean",[8]; [29],100
same,"Plant response rating, Blackgrass",[9]; 125 g ai/ha,50
same,"Plant response rating, Blackgrass",[9]; [29],80
same,Barnyardgrass plant response rating,[10]; [30],20
same,"Plant response rating, Barnyardgrass",[10]; [31],90
same,Ragweed plant response rating,[11]; [30],0
same,"Plant response rating, Ragweed",[11]; [31],0
same,Wheat plant response rating,[12]; [30],20
same,"Plant response rating, Wheat",[12]; [31],60
same,"Oat, Wild plant response rating",[13]; [30],0
same,"Plant response rating, Oat, Wild",[13]; [31],40
same,Horseweed plant response rating,[14]; [30],0
same,"Plant response rating, Horseweed",[14]; [31],0
same,Corn plant response rating,[15]; [30],40
same,"Plant response rating, Corn",[15]; [31],70
same,"Plant response rating, Rice",[16],0
same,"Plant response rating, Barnyardgrass",[17],0
same,"Plant response rating, Kochia",[18]; 125 g ai/ha,0
same,"Plant response rating, Kochia",[18]; [29],60
same,"Plant response rating, Corn",[19]; 125 g ai/ha,30
same,"Plant response rating, Corn",[19]; [29],50
same,Blackgrass plant response rating,[20]; [30],70
same,"Plant response rating, Blackgrass",[20]; [31],90
same,"Plant response rating, Ducksalad",[21],65
same,Soybean plant response rating,[22]; [30],100
same,"Plant response rating, Soybean",[22]; [31],100
same,Kochia plant response rating,[23]; [30],10
same,"Plant response rating, Kochia",[23]; [31],60
same,"Ryegrass, Italian plant response rating",[24]; [30],50
same,"Plant response rating, Ryegrass, Italian",[24]; [31],90
same,"Plant response rating, Wheat",[25]; 125 g ai/ha,30
same,"Plant response rating, Wheat",[25]; [29],50
same,Galium plant response rating,[26]; [30],70
same,"Plant response rating, Galium",[26]; [31],100
same,"Plant response rating, Ryegrass, Italian",[27]; 125 g ai/ha,90
same,"Plant response rating, Ryegrass, Italian",[27]; [29],100
same,"Pigweed, Palmer plant response rating",[28]; [30],20
same,"Plant response rating, Pigweed, Palmer",[28]; [31],40
